Here are results for 1 compound from US8389544B2, “Isoquinolone compounds as subtype-selective agonists for melatonin receptors MT1 and MT2” (The Hong Kong University of Science and Technology, priority 2007, dated 2013).

Data set [1] deals with MT1/293. The experiment in a line: MTT cytotoxicity assay, MT1/293 cells. The data set is classed as cell-based. Particulars: percentage of untreated control cells. Here is the method:
(§1) This assay evaluates the cytotoxic effects of the novel isoquinolone compounds based on the cellular viability under chronic treatments. Viable cells but not dead cells can turn the substrate into a colored product, which yields higher absorbance. […] A low percentage indicates low cytoviability (or high cytotoxicity).
(§2) 5. Cytotoxicity Test Using MTT Assay
(§3) Cells were seeded into clear 96-well plate at an appropriate density in 100 μl growth medium and were allowed to grow overnight. The novel isoquinolone compounds were diluted to desired concentrations using fresh growth medium, and these dilutions were used to replace the growth media in each well. After incubating for 24-96 h, 10 μl of the MTT labeling reagent (Roche) was added to each well and the cells were incubated in a CO2 incubator for 4 h. 100 μl solubilization buffer was then added into each well and incubated overnight for complete solubilization of the purple formazan crystals. […] Each condition was performed in triplicate in every experiment and the results were expressed as % of blank control±SD.

Data set [2] relates to MT2/293. The experiment in a line: MTT cytotoxicity assay, MT2/293 cells. The format is cell-based. Particulars: percentage of untreated control cells. Here is the method:
as §1, §2, §3

Data set [3] deals with Parental 293. Briefly: MTT cytotoxicity assay, parental 293 cells. Particulars: percentage of untreated control cells. The data set is classed as cell-based. Here is the method:
as §1, §2, §3

Data set [4] deals with T1, MT1 receptor (Homo sapiens, UniProt P48039). The experiment in a line: CRE-Luc (luciferase reporter gene) assay, MT1. The data set is classed as cell-based. Further details: expressed in transfected cells. Particulars: HEK 293-pCREluc cells with MT1; inhibition of forskolin response. Here is the method:
(§4) The luciferase reporter gene assay offers another way to measure melatonin receptor activation. Cells expressing cAMP-responsive element-driven luciferase reporter gene (293-pCREluc) and either the MT1 or MT2 receptor are treated with forskolin (a substance which stimulates cAMP production as well as the subsequent luciferase gene expression) alone or with a novel isoquinolone compound. As melatonin receptor activation inhibits cAMP production, any suppression in the expression of luciferase leads to a decrease in enzymatic activities and a reduction in the amount of luminescence signal generated.
(§5) The luciferase assay, a reporter gene assay, was performed to confirm the ability of the invention to activate the melatonin receptors. Prior to the assay, HEK (human embryonic kidney) 293 cells are stably transfected with cAMP-responsive element-driven luciferase reporter gene (293-pCREluc) and cDNAs encoding MT1 or MT2 receptors. The cells are then exposed to the novel isoquinolone compounds, after which the substrate luciferin is added and the resulting luminescence measured.
(§6) Prior to the assay human embryonic kidney (HEK) 293 cells (CRL-1573, ATCC) is maintained at 37° C. in minimum essential medium (MEM) supplemented with 10% fetal bovine serum (FBS), 100 units/ml penicillin and 100 μg/ml streptomycin in a humidified atmosphere containing 5% CO2. Human embryonic kidney 293 cells stably transfected with cAMP-responsive element-driven luciferase reporter gene (293-pCREluc) are established and maintained in growth medium supplemented with 300 μg/ml G418 sulphate.
(§7) For luciferase assays, HEK-293 cells stably expressing pCRE-luciferase are seeded at a density of 15,000 cells/well into 96 well plates. Transfection is carried out using Lipofectamine Plus® reagent at 0.2 μl of both Plus and lipofectamine reagents with 50 ng cDNAs encoding MT1 or MT2 receptors per well. After a 3 hour transfection period at 37° C., 50 μl of DMEM with 20% fetal calf serum (FCS) is added into the wells and the plate is incubated at 37° C. for 48 h prior to 24 hour serum starvation. […]
(§8) Cells are harvested by replacing medium in the well by 50 μl luciferase lysis buffer. The Berthold microplate luminometer is maintained at 25° C. throughout the assay. Injector M connected to an empty tube and P connected to the drug tube are set to inject 25 μl of luciferin into appropriate wells. A 1.6 second delay time followed by a 1 second measuring time period is assigned to injector M, whereas injector P is measured for 10 seconds after luciferase substrate is introduced into the well. Results are expressed as relative luminescent units (RLU). Where indicated, agonist-induced activity is expressed as a percentage of the RLU obtained with forskolin.

The target in data set [5] is T2, MT2 receptor (Homo sapiens, UniProt P49286).
T2 sequence (P49286 1-362): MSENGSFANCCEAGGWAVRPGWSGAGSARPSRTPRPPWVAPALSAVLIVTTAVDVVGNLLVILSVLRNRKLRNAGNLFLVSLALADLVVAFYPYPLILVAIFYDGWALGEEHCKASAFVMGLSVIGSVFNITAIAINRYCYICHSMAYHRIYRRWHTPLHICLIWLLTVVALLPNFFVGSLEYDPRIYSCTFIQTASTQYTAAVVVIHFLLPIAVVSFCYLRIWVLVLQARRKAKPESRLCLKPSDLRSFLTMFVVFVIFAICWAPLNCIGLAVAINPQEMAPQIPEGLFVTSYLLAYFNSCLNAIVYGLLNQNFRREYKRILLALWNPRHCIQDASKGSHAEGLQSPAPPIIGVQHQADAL
The experiment in a line: CRE-Luc (luciferase reporter gene) assay, MT2. The format is cell-based. Further details: expressed in transfected cells. The settings on record: HEK 293-pCREluc cells with MT2; inhibition of forskolin response. Here is the method:
as §4, §5, §6, §7, §8

The target of data set [6] is T1, MT1 receptor. The experiment in a line: Competitive [3H]melatonin binding assay, MT1. Further details: expressed in transfected cells. Here is the method: (§9) Competitive ligand binding assays were performed to examine the receptor binding characteristics of the novel isoquinolone compounds. The assay measures the ability of the novel isoquinolone compounds to bind and displace the radiolabelled endogenous ligand, [^3H]melatonin. Increasing concentrations of the novel compounds are added to displace the [^3H]melatonin-bound to MT1 or MT2 receptor-expressing cells.
(§10) 4. Competitive Binding Assay
(§11) The ability of compounds to bind to MT1 and/or MT2 receptors is determined using radioligand binding assays. […] 48 hours following transfection, cells are harvested in binding buffer (50 mM Tris-HCl, 2 mM MgCl2, 1 mM EDTA, pH 7.4). 100,000 cells are incubated with 1 nM [^3H] melatonin (specific activity: 83 Ci/mmol; GE Healthcare) and appropriate concentrations (0.1 nM to 1 μM) of unlabelled ligands in a total volume of 100 μl in 96-well plates (PerkinElmer Life And Analytical Sciences, Inc., Boston, Mass.) for 2 hours at room temperature. Reactions are terminated by rapid filtration through a 96-well cell harvester onto 96-well GF/C filter mats. Filters are washed with 500 μl of ice-cold binding buffer, dried and sealed in a polyethylene bag with 3.5 ml of scintillation fluid and counted for tritium in a Microbeta Jet scintillation counter. […] Data are analyzed by nonlinear least-squares regression using GraphPad Prism 3.02.

Data set [7] addresses T2, MT2 receptor. Briefly: Competitive [3H]melatonin binding assay, MT2. Set-up: expressed in transfected cells. Particulars: displacement of [3H]melatonin. Here is the method:
as §9, §10, §11

Data set [8] deals with T1, MT1 receptor. The experiment in a line: cAMP assay, MT1. The format is cell-based. Further details: expressed in transfected cells; host or cells: COS-7 (monkey kidney fibroblast). Particulars: inhibition of forskolin-stimulated cAMP production; MT1-expressing cells.
Data set [9] addresses T2, MT2 receptor. The experiment in a line: cAMP assay, MT2. The data set is classed as cell-based. Set-up: expressed in transfected cells; host or cells: COS-7 (monkey kidney fibroblast). Particulars: inhibition of forskolin-stimulated cAMP production; MT2-expressing cells.

T1 sequence (P48039 whole entry): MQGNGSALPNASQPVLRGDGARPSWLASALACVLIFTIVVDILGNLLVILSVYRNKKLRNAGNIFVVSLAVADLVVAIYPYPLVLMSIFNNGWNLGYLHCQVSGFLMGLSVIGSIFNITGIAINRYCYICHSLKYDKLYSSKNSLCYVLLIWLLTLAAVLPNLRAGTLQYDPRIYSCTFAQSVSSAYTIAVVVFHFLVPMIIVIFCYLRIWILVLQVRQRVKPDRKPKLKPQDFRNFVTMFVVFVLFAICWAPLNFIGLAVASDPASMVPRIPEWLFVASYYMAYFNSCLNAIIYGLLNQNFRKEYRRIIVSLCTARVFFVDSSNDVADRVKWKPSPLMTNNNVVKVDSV

Regarding `COc1ccc2[nH]c(I)c(CCNC(C)=O)c2c1` [Compound 2-IMT, 2-iodomelatonin, reference compound], in [1], the “MTT Assay MT1/293 % Viability ± SEM” value worked out at 113.3 ± 7.0%. Moreover, the “MTT Assay MT2/293 % Viability ± SEM” value in data set [2] was found to be 119.5 ± 8.3%. The “MTT Assay Parental 293 % Viability ± SEM” value in data set [3] came to 105.9 ± 4.3%. The “CRE-Luc Assay MT1 % Inh ± SEM of 1 μM Fsk” value in [4] was found to be 73.0 ± 2.2%. For the same compound, the “CRE-Luc Assay MT2 % Inh ± SEM of 1 μM Fsk” value in data set [5] turned out to be 61.9 ± 5.0%. For the same compound, the “displacement of bound [3H]melatonin” value in [6] (b129, MT1 or MT2 receptor-expressing cells, both subtypes) is reported as 85-95%. The “Binding Assay MT1 % Inh” value in data set [6] (displacement of [3H]melatonin) came to 94.9%. Also, the “Binding Assay MT2 % Inh” value in [7] is 85.1%. Also, the “cAMP Assay MT1 % Inh” value in data set [8] was found to be 48.5 ± 17.8%. Also, the “cAMP Assay MT2 % Inh” value in [9] is on record as 51.9 ± 5.6%.
